According to patent US20040097478A1, “Remedies for retina and choroid diseases containing steroids as the active ingredient” (SANTEN PHARMACEUTICAL O., LTD, priority 2001, published 2004):
Where two headings read alike, the source gives them in different places.

Tests used:
[1] = system: Laser-induced rat choroidal neovascularization models; conditions: for Neovascularization exhibition rate (%, average of eight eyes): fluorescein fundus angiography on seventh day; for Choroidal neovascularization inhibition rate (%): versus vehicle administration group
Experimental: (§1) A one ml/kg mixed solution (7:1) of a 5% ketamine hydrochloride injection and a 2% xylazine hydrochloride injection was administered intramuscularly to rats to anesthetize them systemically. A 0.5% tropicamide-0.5% phenylephrine hydrochloride ophthalmic solution was instilled into the eyes to cause mydriasis, and then photocoagulation was performed with a krypton laser photocoagulation apparatus. The photocoagulation was carried out in a posterior section of ocular fundus at eight spots per eye sparsely avoiding thick retinal vessels and focusing on the retinal depth (coagulation conditions: spot size: 100 μm, output: 100 mW, coagulation time: 0.1 sec). After the photocoagulation, the ocular fundus was photographed to confirm laser irradiation sites.
Triamcinolone was suspended in the phosphate buffers as a comparative group so that its concentrations were 0.2 mg/ml and 2 mg/ml, and each suspension was administered similarly. The phosphate buffer was administered similarly as a vehicle administration group.
(§2) On seventh day after the photocoagulation, 0.1 ml of 10% fluorescein was injected from carotid vein, and fluorescein fundus angiography was performed. In the fluorescein fundus angiography, a spot where fluorescence diapedesis was not observed was judged as negative, and a spot where fluorescence diapedesis was observed was judged as positive. Each neovascularization exhibition rate was obtained by calculating the ratio of a positive spot number to eight spots irradiated with the laser, and each choroidal neovascularization inhibition rate was calculated according to the following equation.
(§3) Choroidal neovascularization inhibition rate (%)=(Ao−Ax)/Ao×100
(§4) Ao: Neovascularization exhibition rate of vehicle administration group
(§5) Ax: Neovascularization exhibition rate of drug administration group

[2] = system: Thrombin-induced rat retinal vessel hyperpermeability models; assay: Retinal vessel permeability inhibition tests of betamethasone phosphate; type: in vivo; conditions: administered with thrombin
Experimental: A one ml/kg mixed solution (7:1) of a 5% ketamine hydrochloride injection and a 2% xylazine hydrochloride injection was intramuscularly administered to rats to anesthetize them systemically. Then, a 0.5% tropicamide-0.5% phenylephrine hydrochloride ophthalmic solution was instilled into left eyes to cause mydriasis. Thrombin (500. U/ml, 2.5 μl) was injected into vitreous bodies (left eye) of rats of a drug administration group and a control group with a 33 G needle without injuring crystalline lenses and retinas while observing them with a microscope for operation. A vehicle (Dulbecco's modified phosphate buffer physiological saline) was administered to rats of a normal group instead of thrombin. […]
Forty-eight hours after administering thrombin intravitreously, the 0.5% tropicamide-0.5% phenylephrine hydrochloride ophthalmic solution was instilled into the eyes to cause mydriasis. […] About 40 minutes after administering fluorescein, blood was collected from hearts, and then an intraocular fluorescent pigment concentration was immediately measured with a fluorotron master. The collected blood was centrifuged at 15,000 rpm×5 minutes, then supernatant (plasma) was diluted 51 times with the phosphate buffer physiological saline, and a fluorescent pigment concentration in the plasma was measured with the fluorotron master. […]

[3] = system: Laser-induced rat choroidal neovascularization models; assay: Choroidal neovascularization inhibition tests of hydrocortisone; type: in vivo; conditions: for Neovascularization exhibition rate (%, average of eight eyes): administered once subconjunctivally immediately after laser irradiation; for Choroidal neovascularization inhibition rate (%): once subconjunctivally, versus vehicle administration group
Experimental: as §1, §2, §3, §4, §5
Hydrocortisone was dissolved in phosphate buffers so that its concentrations were 2 mg/ml and 20 mg/ml, and each solution was administered once subconjunctivally in an amount of 50 μl immediately after laser irradiation. The phosphate buffer was administered similarly as a vehicle administration group.
Evaluation was carried out by a method similar to the above-mentioned tests of betamethasone sodium phosphate.

[4] = system: Dispase-induced rabbit PVR models; assay: Retinal detachment inhibition tests of betamethasone; type: in vivo; conditions: 10 mg/eye subconjunctival immediately after dispase
Experimental: A 0.5% tropicamide-0.5% phenylephrine hydrochloride ophthalmic solution was instilled into eyes of rabbits to cause mydriasis, and a 1 ml/kg mixed solution (7:1) of a 5% ketamine hydrochloride injection and a 2% xylazine hydrochloride injection was administered intramuscularly to the rabbits to anesthetize them systemically. 0.4% oxybuprocaine was instilled into the eyes to anesthetize anterior segments of the eyes, and then 100 μl of a dispase solution prepared at a concentration of 0.05 U/100 μl with physiological saline was injected into vitreous bodies. Six weeks and ten weeks after injecting the dispase solution, PVR induced by dispase was confirmed by observing ocular fundus.
Betamethasone was dissolved in a phosphate buffer so that its concentration was 0.1 g/ml, and the solution was administered subconjunctivally in an amount of 100 μl immediately after injecting dispase. The phosphate buffer was administered similarly as a vehicle administration group.
The ocular fundus was observed 56 days after inducing by dispase, and PVR was judged by scores. Criteria of judgment are shown below. Scores of three or more were defined as exhibition of PVR, and pathogenesis rates of PVR (pathogenesis rates of retinal detachment) in respective groups were calculated according to the equation 2.
1: A vitreous membrane is observed.
2: Traction, vascular abnormality or engorgement of the retina is observed.
3: Topical retinal detachment is observed.
4: Wide retinal detachment is observed.
5: Total retinal detachment is observed.
Pathogenesis rate of PVR (%)=PVR exhibition eye number/test eye number×100

[5] = 10 μg/eye/day subconjunctival for seven days after laser irradiation
[6] = 100 μg/eye/day subconjunctival for seven days after laser irradiation

In the case of `C[C@H]1C[C@H]2[C@@H]3CCC4=CC(=O)C=C[C@]4(C)[C@@]3(F)[C@@H](O)C[C@]2(C)[C@@]1(O)C(=O)COP(=O)([O-])[O-].[Na+].[Na+]` [Betamethasone sodium phosphate, betamethasone sodium phosphate], the “Neovascularization exhibition rate (%, average of eight eyes)” value [1, 5] is reported as 34.4%, the “Neovascularization exhibition rate (%, average of eight eyes)” value [1, 6] is reported as 11.1% and the “Effect on hyperpermeability of retinal vessels due to thrombin (in words)” value [2] is reported as “the hyperpermeability of retinal vessels due to thrombin is inhibited”.

For `C[C@]12CCC(=O)C=C1CC[C@@H]1[C@@H]2[C@@H](O)C[C@@]2(C)[C@H]1CC[C@]2(O)C(=O)CO` [Hydrocortisone], the “Neovascularization exhibition rate (%, average of eight eyes)” value ([3]; 100 μg/eye/day) was 45.3%, the “Choroidal neovascularization inhibition rate (%)” value ([3]; 100 μg/eye/day) was 32.6% and the “Neovascularization exhibition rate (%, average of eight eyes)” value ([3]; 1000 μg/eye/day) was 19.6%. For the same compound, the “Choroidal neovascularization inhibition rate (%)” value ([3]; 1000 μg/eye/day) was 70.8% and the “Inhibitory effect on choroidal neovascularization (in words)” value ([3]; both dosages of 100 μg/eye/day and 1,000 μg/eye/day) was “has an inhibitory effect on choroidal neovascularization”.

`C[C@H]1C[C@H]2[C@@H]3CCC4=CC(=O)C=C[C@]4(C)[C@@]3(F)[C@@H](O)C[C@]2(C)[C@@]1(O)C(=O)CO` [Betamethasone] was tested, and the “Pathogenesis rate of PVR” value ([4]; after 6 weeks) was 45.5%, the “Pathogenesis rate of PVR” value ([4]; after 10 weeks) was 37.5% and the “Pathogenesis rate of PVR” value ([4]; after 10 weeks, listed as betamethasone) was 37.5%.

`C[C@]12C=CC(=O)C=C1CC[C@H]1[C@@H]3C[C@@H](O)[C@](O)(C(=O)CO)[C@@]3(C)C[C@H](O)[C@@]12F` [Triamcinolone] was tested, and the “Neovascularization exhibition rate (%, average of eight eyes)” value [1, 5] was 46.9%, the “Choroidal neovascularization inhibition rate (%)” value ([1]; 10 μg/eye/day subconjunctival for seven days) was 13.1% and the “Neovascularization exhibition rate (%, average of eight eyes)” value [1, 6] was 22.3%. The “Choroidal neovascularization inhibition rate (%)” value ([1]; 100 μg/eye/day subconjunctival for seven days) was 58.8%.
